# Laboratory results from patent US4818772A, “Derivatives of 4-aminoethoxy-5-isopropyl-2-methylbenzenes: methods of synthesis and utilization as medicines” (Societe Cortial S.A., priority 1981, dated 1989).
# Counter-ions that a name gives are not always drawn. Like-named read-outs stand apart in the source and are kept apart here.
# Assays:
# [1] = tested on: rats of Okamoto stock that are spontaneously hypertensive; test: Antihypertensive activity in spontaneously hypertensive rats; type: in vivo; conditions: i.v., 0.1 mg/kg; from 135 mm of mercury; anesthetized with pentobarbital
# Method: (§1) For oral administration, male rats kept awake and fitted with catheters implanted in the carotid artery and in the jugular vein are used. Compound COR 28 11 results in a maximum activity of 56.7±10.25% at a dose of 5 mg/kg. After 60 minutes, the activity is still 30%. The antihypertensive activity is determined on rats of Okamoto stock that are spontaneously hypertensive and anesthesized with pentobarbital. A dose of 0.1 mg/kg of compound COR 28 11 administered intravenously causes the average blood pressure to go from 135 to 106 mm of mercury.
# [2] = tested on: aortic strips isolated from rabbits (contractions induced by noradrenaline); test: In vitro alpha-blocking activity: antagonism of noradrenaline-induced contractions of aortic strips; type: cell-based; conditions: Oryctolagus cuniculus, read-out: CI 50 (50% inhibition of standard contraction induced by noradrenaline), noradrenaline 2×10^-6 M/l
# Method: In vitro alpha-blocking activity is determined by the antagonism of contractions of aortic strips isolated from rabbits. The contractions are induced by noradrenaline at a concentration of 2×10^-6 M/l. The technique utilized is derived from that of Furchgott and Bhadrakom (J. Pharmacol., 1953, 108, 129-43). The agonist is introduced in the bath 30 seconds or 14 minutes after the addition of the antagonist.
# [3] = tested on: hypertension induced by phenylephrine; test: In vivo alpha-blocking activity: antagonism of hypertension induced by phenylephrine, intravenous, amyelic rats; conditions: for inhibition in vivo at 1.6 mg/kg / inhibition in vivo at 3.2 mg/kg / inhibition in vivo at 0.2 mg/kg: Rattus norvegicus, iv, read-out: % of maximum activity (percentage inhibition); for time for the residual activity to become 50% of the maximum activity: i.v.
# Method: (§2) The in vivo alpha-blocking activity is estimated by the measurement of the antagonism of hypertension induced by phenylephrine. For intravenous administration, amyelic rats with both vagus nerves removed according to the technique of J. S. Gillespie and T. C. Muir (Br. J. Pharmac. Chemother., 1967, 30, 78-87) are used. The alpha-blocking agents are administered at doses of 0.2, 1.6 and 3.2 mg/kg.
# [4] = in vivo; conditions: mouse; for mortality: oral, Swiss mice, solvent varies by compound, read-out: Percentage mortality
# Method: The toxicity of the compounds described in the present invention was determined by performing tests with Swiss mice. The animals, free of specific pathogenic organisms, are kept in an air-conditioned room for 24 to 48 hours before the beginning of the experiment. The animals are divided into groups consisting of 5 males and 5 females. The substances are administered with the appropriate carrier in a volume corresponding to 0.1 ml per 10 g of animal weight.
# The following tables display the LD 50 determined for each compound, for oral and intraperitoneal administration, by utilizing the method described by J. C. Cazin (Bull. Soc. Pharm. Lille, 1972, 4, 187). In case the LD 50 could not be measured, the mortality percentages produced by various doses are reported.
# [5] = tested on: hypertension induced by phenylephrine; test: In vivo alpha-blocking activity: antagonism of hypertension induced by phenylephrine, oral, awake male rats; conditions: 5 mg/kg
# Method: as §2, §1
# [6] = tested on: unwashed human platelets; test: Prevention of the aggregation of human platelets (plasma rich in platelets); type: cell-based; conditions: Platelet
# Method: The studies were carried out with platelets in their natural surroundings (plasma rich in platelets). The inhibiting agent was tested in the presence of four types of aggregating agents (ADP, adrenalin, collagen, arachidonic acid) at various concentrations.
# For each case, a dose-response curve was established.
# [7] = agonist 30 seconds after antagonist (not flagged with *)
# [8] = read-out: I 50 (50% inhibition of platelet aggregation), ADP 1.25μM/l
# [9] = read-out: I 50 (50% inhibition of platelet aggregation), ADP 2.5μM/l
# [10] = read-out: I 50 (50% inhibition of platelet aggregation), adrenalin 1μM/l
# [11] = read-out: I 50 (50% inhibition of platelet aggregation), adrenalin 5μM/l
# [12] = read-out: I 50 (50% inhibition of platelet aggregation), arachidonic acid 5·10^-4 M/l
# [13] = read-out: I 50 (50% inhibition of platelet aggregation), arachidonic acid 10^-3 M/l
# [14] = read-out: I 50 (50% inhibition of platelet aggregation), collagen 50μg/ml
structure (smiles),measurement,setting,value
"COc1cc(C(C)C)c(OCCN(C)CCOc2c(OC)cccc2OC)cc1C [COR 28 11, hydrochloride of N-(2,6-dimethoxyphenoxyethyl)-N-methyl-2-[(2-isopropyl-4-methoxy-5-methyl)phenoxy]ethylamine]",average blood pressure after administration,[1],106 mm of mercury
same,IC50,"[2]; 14 min, contact time 14 min",21.6 µM
same,inhibition in vivo at 1.6 mg/kg,[3]; 1.6 mg/kg,61.8 ± 4.9%
same,inhibition in vivo at 3.2 mg/kg,[3]; 3.2 mg/kg,74.6 ± 4.4%
same,time for the residual activity to become 50% of the maximum activity,"[3]; 1.6 mg/kg, given in m and s",> 60 min
same,time for the residual activity to become 50% of the maximum activity,"[3]; 3.2 mg/kg, given in m and s",60 min
same,LD50,[4]; ip,93 mg/kg
same,LD50,[4]; po,546 mg/kg
same,maximum activity,[5],56.7±10.25%
same,activity after 60 minutes,[5]; after 60 minutes,30%
"Cc1cc(OCCNCC2COc3ccccc3O2)c(C(C)C)cc1O (centres unmarked) [COR 28 14, hydrochloride of N-[(4-hydroxy-2-isopropyl-5-methyl)phenoxyethyl]-[2-(1,4-benzodioxane)]methylamine]",IC50,[2]; [7],6 µM
same,inhibition in vivo at 1.6 mg/kg,[3]; 1.6 mg/kg,92 ± 2.45%
same,inhibition in vivo at 3.2 mg/kg,[3]; 3.2 mg/kg,100%
same,time for the residual activity to become 50% of the maximum activity,"[3]; 3.2 mg/kg, given in m and s",> 60 min
same,LD50,[4]; ip,174 mg/kg
same,LD50,[4]; po,952 mg/kg
"Cc1cc(OCCN(C)CCCc2ccccc2)c(C(C)C)cc1O [COR 28 23, hydrochloride of 5-isopropyl-2-methyl-4-[N-methyl-N-(3-phenylpropyl)aminoethoxy]phenol]",IC50,[2]; [7],2.7 µM
same,inhibition in vivo at 1.6 mg/kg,[3]; 1.6 mg/kg,81.1 ± 2.35%
same,time for the residual activity to become 50% of the maximum activity,"[3]; 1.6 mg/kg, given in m and s",20 min
same,LD50,[4]; ip,154 mg/kg
same,LD50,[4]; po,615 mg/kg
"Cc1cc(OCCN(C)CC2COc3ccccc3O2)c(C(C)C)cc1O (centres unmarked) [COR 28 12, hydrochloride of N-[(4-hydroxy-2-isopropyl-5-methyl)phenoxyethyl]-N-methyl-[2-(1,4-benzodioxane)]methylamine]",IC50,[2]; [7],90 µM
same,inhibition in vivo at 1.6 mg/kg,[3]; 1.6 mg/kg,59.1 ± 7.5%
same,inhibition in vivo at 3.2 mg/kg,[3]; 3.2 mg/kg,65.7 ± 4.5%
same,LD50,[4]; ip,350 mg/kg
same,LD50,[4]; po,1430 mg/kg
"COc1cc(C(C)C)c(OCCN(C)CCOc2ccccc2)cc1C [COR 28 09, hydrochloride of N-methyl-N-phenoxyethyl-2-[(2-isopropyl-4-methoxy-5-methyl)phenoxy]ethylamine]",IC50,[2]; [7],260 µM
same,inhibition in vivo at 1.6 mg/kg,[3]; 1.6 mg/kg,51.4 ± 5.1%
same,inhibition in vivo at 3.2 mg/kg,[3]; 3.2 mg/kg,74.7 ± 5.2%
same,LD50,[4]; ip,200 mg/kg
same,mortality,[4]; 1000 mg/kg,0%
"Cc1cc(OCCNCCCc2ccccc2)c(C(C)C)cc1O [COR 28 21, hydrochloride of 5-isopropyl-2-methyl-4-[N-(3-phenylpropyl)aminoethoxy]phenol]",IC50,[2]; [7],11.7 µM
same,inhibition in vivo at 1.6 mg/kg,[3]; 1.6 mg/kg,73.4 ± 6.99%
same,time for the residual activity to become 50% of the maximum activity,"[3]; 1.6 mg/kg, given in m and s",50 min
same,LD50,[4]; ip,84.6 mg/kg
same,LD50,[4]; po,359 mg/kg
Cc1cc(OCCNCC2COc3ccccc3O2)c(C(C)C)cc1O (centres unmarked) [drawing 29],IC50,[6]; [8],60 µM
same,IC50,[6]; [9],58 µM
same,IC50,[6]; [10],24 µM
same,IC50,[6]; [11],50 µM
same,IC50,[6]; [12],15 µM
same,IC50,[6]; [13],54 µM
same,IC50,[6]; [14],52 µM
"COc1cccc(OC)c1OCCN(C)CCOc1cc(C)c(O)cc1C(C)C [COR 28 22, hydrochloride of 4-[N-(2,6-dimethoxyphenoxyethyl)-N-methylaminoethoxy]-5-isopropyl-2-methylphenol]",IC50,[2]; [7],0.178 µM
same,inhibition in vivo at 0.2 mg/kg,[3]; 0.2 mg/kg,91.1 ± 3.46%
same,inhibition in vivo at 1.6 mg/kg,[3]; 1.6 mg/kg,112 ± 7.3%
same,time for the residual activity to become 50% of the maximum activity,[3]; 0.2 mg/kg,35 min
same,time for the residual activity to become 50% of the maximum activity,"[3]; 1.6 mg/kg, given in m and s",120 min
same,LD50,[4]; ip,66.2 mg/kg
same,LD50,[4]; po,316 mg/kg
"COc1cc(C(C)C)c(OCCNCCOc2ccccc2)cc1C [COR 28 10, hydrochloride of N-phenoxyethyl-2-[(2-iso-propyl-4-methoxy-5-methyl)phenoxy]ethylamine]",IC50,[2]; [7],350 µM
same,inhibition in vivo at 1.6 mg/kg,[3]; 1.6 mg/kg,66.3 ± 1.83%
same,inhibition in vivo at 3.2 mg/kg,[3]; 3.2 mg/kg,77%
same,LD50,[4]; ip,81 mg/kg
same,mortality,[4]; 1000 mg/kg,20%
"CC(=O)Oc1cc(C(C)C)c(OCCN(C)CC2COc3ccccc3O2)cc1C (centres unmarked) [COR 28 13, hydrochloride of N-[(4-acetoxy-2-isopropyl-5-methyl)phenoxyethyl]-N-methyl-[2-(1,4-benzodioxane)]methylamine]",IC50,[2]; [7],252 µM
same,inhibition in vivo at 1.6 mg/kg,[3]; 1.6 mg/kg,46.1 ± 6.01%
same,inhibition in vivo at 3.2 mg/kg,[3]; 3.2 mg/kg,61.1 ± 6.4%
same,LD50,[4]; ip,600 mg/kg
same,mortality,[4]; 1000 mg/kg,0%
same,mortality,[4]; 2000 mg/kg,20%
"COc1cccc(OC)c1OCCNCCOc1cc(C)c(O)cc1C(C)C [COR 28 25, hydrochloride of 4-[N-(2,6-dimethoxyphenoxyethyl)aminoethoxy]-5-isopropyl-2-methylphenol]",inhibition in vivo at 0.2 mg/kg,[3]; 0.2 mg/kg,70.2 ± 4.89%
same,inhibition in vivo at 1.6 mg/kg,[3]; 1.6 mg/kg,94.8 ± 2.22%
same,time for the residual activity to become 50% of the maximum activity,[3]; 0.2 mg/kg,20 min
same,time for the residual activity to become 50% of the maximum activity,"[3]; 1.6 mg/kg, given in m and s",120 min
"CC(=O)Oc1cc(C(C)C)c(OCCN(C)C)cc1C [Moxisylyte, reference compound]",IC50,[2]; [7],17 µM
same,inhibition in vivo at 1.6 mg/kg,[3]; 1.6 mg/kg,83.1 ± 5.71%
same,inhibition in vivo at 3.2 mg/kg,[3]; 3.2 mg/kg,82.6 ± 4.54%
same,LD50,[4]; ip,73 mg/kg
same,LD50,[4]; po,225 mg/kg
COc1cc(C(C)C)c(OCCN(C)CCOc2c(OC)cccc2OC)cc1C [drawing 28],IC50,[6]; [8],70 µM
same,IC50,[6]; [9],74 µM
same,IC50,[6]; [10],16 µM
same,IC50,[6]; [11],40 µM
same,IC50,[6]; [12],> 100 µM
same,IC50,[6]; [13],> 100 µM
same,IC50,[6]; [14],100 µM
